One block for each compound: values may come before it.
How the values were obtained:
CK2 = details: prior-art value; read-out: IC50 (CK2, literature); cited from earlier work
[1] = prior art; lactam ring hydrolysis; cited from earlier work
CK2 holoenzyme = CK2 holoenzyme (Homo sapiens (Human), UniProt P68400); test: capillary electrophoretic CK2 inhibition/activity test (E-peptide substrate); format: biochemical; details: for IC50: capillary electrophoretic test, ten minutes pre-incubation; for CK2-activity at 10 μM: residual CK2 activity at 10 μM substance, values below 4% not reliably quantifiable
Chain of CK2 holoenzyme (P68400 whole entry): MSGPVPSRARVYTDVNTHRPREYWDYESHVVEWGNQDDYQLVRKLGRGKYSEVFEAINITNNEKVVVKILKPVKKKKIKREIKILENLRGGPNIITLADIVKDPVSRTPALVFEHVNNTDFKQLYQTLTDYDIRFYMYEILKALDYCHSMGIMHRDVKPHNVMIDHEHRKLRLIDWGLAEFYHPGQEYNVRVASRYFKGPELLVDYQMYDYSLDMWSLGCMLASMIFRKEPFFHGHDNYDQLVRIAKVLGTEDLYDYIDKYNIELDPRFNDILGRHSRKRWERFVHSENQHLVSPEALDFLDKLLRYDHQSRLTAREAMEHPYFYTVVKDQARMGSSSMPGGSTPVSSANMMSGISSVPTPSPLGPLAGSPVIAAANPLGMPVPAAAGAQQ
Chain of CK2 holoenzyme (P67870 whole entry partner): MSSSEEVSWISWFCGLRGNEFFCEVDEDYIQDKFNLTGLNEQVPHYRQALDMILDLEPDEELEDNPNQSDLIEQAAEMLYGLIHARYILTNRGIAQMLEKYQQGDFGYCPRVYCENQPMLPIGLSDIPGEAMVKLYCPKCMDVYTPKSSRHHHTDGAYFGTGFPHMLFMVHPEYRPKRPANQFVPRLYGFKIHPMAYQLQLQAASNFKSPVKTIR
Description: To this end, the capillary electrophoretic CK2 inhibition test using E-peptide as the substrate was carried out. […] Ten concentrations between 0.0001 μM and 10 μM were investigated for this purpose.
Kuckländer (Kuckländer and Töberich, 1982; Bollig, 2007).

LNCaP cells = test: MTT test, viability of LNCaP cells; format: cell-based, human; details: relative to untreated cells; for viability at 75 µM / viability at 25 µM / viability at 50 µM: Homo sapiens, LNCaP
Description: The viability was determined with the aid of the MTT test.
A MTT test was used to determine the effect of TF on the viability of LNCaP cells. To this end, these cell lines were treated with three concentrations of TF (25 μM, 50 μM, 75 μM). The effect was determined after 24 h, 48 h and 72 h as the relative viability compared with untreated cells. […] After treating the LNCaP cells with TF, both the effects of increasing the concentration and also of prolonging the incubation time could be recorded. After 24 hours incubation with 25 μM of TF, the viability had already dropped to 45% and after the same incubation time with 50 μM of TF, it had dropped further to 30%. […] The effects after 24 h could be reinforced in each case by extending the incubation time. Thus, after 48 hours incubation with 25 μM, 50 μM and 75 μM of TF, a viability of 37%, 15% or 12% was observed. […] Thus, an incubation time of 24 h had only a small effect. […] Only at the highest concentration of 75 μM, a reduction to 45% after 48 h was recorded, and after 72 h, the viability was still 17% (FIG. 5B). […] In summary, it has been shown that the viability of LNCaP cells is reduced by both substances.

[2] = tested on: PARP cleavage in LNCaP cells; test: PARP cleavage in LNCaP cells (Western Blot); format: cell-based, human
Description: The controls were cells which had only been treated with DMSO (0 μM). After SDS-PAGE and Western Blotting, complete PARP (115 kDa) and the 89 kDa fragment obtained after caspase cleavage with the aid of an anti-PARP antibody were labelled.
Next, we investigated whether the TF-mediated reduction in cell viability could be related to apoptotic events. To this end, cleavage of poly(ADP-ribose)-polymerase (PARP) in cells was assayed. Caspase 3 cleaves the 115 kDa PARP into two stable fragments: the 24 kDa DNA-binding N-terminal domain and the 89 kDa C-terminal fragment. This specific proteolysis of PARP characterizes the irreversible point of initiation apoptosis and can be assayed in a Western Blot of cell lysates with a specific PARP antibody. […] This effect was observed both after an incubation time of 24 h and also, more strongly, after 48 h.

[3] = tested on: endogenous CK2 of LNCaP cells; test: CK2 activity in lysates of treated LNCaP cells (radiometric test); format: cell-based, human; details: for endogenous CK2 activity of LNCaP cells: from 25 μM, 24 h or 48 h, relative to untreated cells
Description: The CK2 activity was determined using a radiometric test procedure. The relative activities of the samples were each relative to untreated cells. White bars show the CK2 activity after 24 h; grey bars show the CK2 activity after 48 h incubation with each inhibitor. For samples (A) treated with TF, double determinations were carried out (the mean value is given in each case).
LNCaP cells were incubated with TF in the same manner as in the experiments described above. After 24 h or 48 h, the CK2 activity of lysates was measured using radiometric CK2 testing. This investigation provided an indication as to whether the inhibition of TF found with the isolated enzyme could be observed in cellular systems. […] Cells were incubated for 24 h or 48 h with 25 μM, 50 μM or 75 μM of TF and then washed and lysed. The relative CK2 activity was calculated from these cell lysates. The reference was the CK2 activity of cell lysates from untreated cells incubated for corresponding periods. In order to compensate for any fluctuations in the radiometric test, in the case of TF, two samples per parameter were measured. As a qualitative control, the TBB samples were used and measured individually.
The observed reduction in CK2 activity was thus due to modulation of the CK2 enzyme activity. […] Altogether, it can be seen that TF reduces the endogenous CK2 activity in LNCaP cells. […] Proof of the inhibition of intracellular CK2 is provided by the ability of TF to permeate cells.

[4] = prior art; cited from earlier work
CK2α (CK2a) = CK2α (CK2a) (Homo sapiens (Human), UniProt P68400); test: Reaction Biology radiometric kinase selectivity test; format: biochemical; details: 10 μM TF, 10 μM ATP; read-out: residual activity CK2α
Chain of CK2α (CK2a) (P68400 whole entry): as the sequence (P68400 whole entry) above

Aurora A = Aurora A (Homo sapiens (Human), UniProt O14965); test: as above; format: biochemical; details: 10 μM TF, 10 μM ATP, relative kinase activity
Chain of Aurora A (O14965 whole entry): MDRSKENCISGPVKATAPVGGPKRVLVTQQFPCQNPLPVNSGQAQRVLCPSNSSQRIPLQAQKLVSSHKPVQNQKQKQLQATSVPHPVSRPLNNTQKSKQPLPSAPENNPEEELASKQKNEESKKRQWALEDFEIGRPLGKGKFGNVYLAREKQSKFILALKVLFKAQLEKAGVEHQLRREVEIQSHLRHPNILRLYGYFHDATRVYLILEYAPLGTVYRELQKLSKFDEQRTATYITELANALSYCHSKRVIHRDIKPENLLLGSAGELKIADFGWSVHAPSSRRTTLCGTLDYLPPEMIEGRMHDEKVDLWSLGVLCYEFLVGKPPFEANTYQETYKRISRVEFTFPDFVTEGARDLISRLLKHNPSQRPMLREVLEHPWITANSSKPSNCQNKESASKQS
Description: (§1) The listed PKs were incubated with 10 μM TF and 10 μM ATP. Next, the relative percentage kinase activity was determined (mean value from n=2). 100% activity was defined as the activity of the respective kinase in the absence of TF. The PK grouping was in accordance with Manning et al. (2002).
(§2) After the inhibitory potency of TF had been able to be established in LNCaP cells, the possibility that TF could be a selective CK2 inhibitor had to be investigated. To this end, the inhibiting effect of TF on 63 isolated human protein kinases (PK) was investigated by the firm “Reaction Biology” (Malvern, Pa., USA). These included representatives of PKs from all main groups of the human kinome (Manning et al., 2002). The results of this investigation are shown in FIG. 8, classified into the main human PK groups. In this series of tests, all of the PKs were each incubated with 10 μM of ATP and 10 μM of TF. In a subsequent radiometric test, the respective kinase activity with respect to a sample without TF was determined. Since the KM values of PK with respect to ATP occasionally differed substantially (Knight and Shokat, 2005), the results only allow a semi-quantitative comparison of inhibition by TF to be made. […] However, the different test parameters, such as substrate and ATP concentration, buffer, etc., must be taken into account and so a direct comparison of the inhibition data as a percentage is not possible at this point. The seven PKs which were inhibited the most strongly (>70%) are listed separately in Table 3.

CK2α′ (CK2a2) = CK2α′ (CK2a2) (Homo sapiens (Human), UniProt P19784); test: as above; format: biochemical; details: 10 μM TF, 10 μM ATP; read-out: residual activity CK2α′
Chain of CK2α′ (CK2a2) (P19784 whole entry): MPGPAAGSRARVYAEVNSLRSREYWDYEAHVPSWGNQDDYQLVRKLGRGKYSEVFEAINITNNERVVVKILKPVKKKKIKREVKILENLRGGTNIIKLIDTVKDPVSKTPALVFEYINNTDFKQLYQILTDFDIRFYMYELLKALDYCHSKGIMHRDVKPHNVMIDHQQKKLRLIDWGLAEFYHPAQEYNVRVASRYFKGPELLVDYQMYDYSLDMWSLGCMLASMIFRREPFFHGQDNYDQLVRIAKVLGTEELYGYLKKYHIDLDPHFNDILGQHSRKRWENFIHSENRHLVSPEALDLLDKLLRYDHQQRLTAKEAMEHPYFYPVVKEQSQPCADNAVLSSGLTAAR
Description: as §1, §2

FLT4/VEGFR3 = FLT4/VEGFR3 (Homo sapiens (Human), UniProt P35916); test: as above; format: biochemical; details: 10 μM TF, 10 μM ATP, relative kinase activity
Description: as §1, §2

IRAK4 = IRAK4 (Homo sapiens (Human), UniProt Q9NWZ3); test: as above; format: biochemical; details: 10 μM TF, 10 μM ATP
Description: as §1, §2

KDR/VEGFR2 = KDR/VEGFR2 (Homo sapiens (Human), UniProt P35968); test: as above; format: biochemical; details: 10 μM TF, 10 μM ATP, relative kinase activity
Chain of KDR/VEGFR2 (P35968 20-1356): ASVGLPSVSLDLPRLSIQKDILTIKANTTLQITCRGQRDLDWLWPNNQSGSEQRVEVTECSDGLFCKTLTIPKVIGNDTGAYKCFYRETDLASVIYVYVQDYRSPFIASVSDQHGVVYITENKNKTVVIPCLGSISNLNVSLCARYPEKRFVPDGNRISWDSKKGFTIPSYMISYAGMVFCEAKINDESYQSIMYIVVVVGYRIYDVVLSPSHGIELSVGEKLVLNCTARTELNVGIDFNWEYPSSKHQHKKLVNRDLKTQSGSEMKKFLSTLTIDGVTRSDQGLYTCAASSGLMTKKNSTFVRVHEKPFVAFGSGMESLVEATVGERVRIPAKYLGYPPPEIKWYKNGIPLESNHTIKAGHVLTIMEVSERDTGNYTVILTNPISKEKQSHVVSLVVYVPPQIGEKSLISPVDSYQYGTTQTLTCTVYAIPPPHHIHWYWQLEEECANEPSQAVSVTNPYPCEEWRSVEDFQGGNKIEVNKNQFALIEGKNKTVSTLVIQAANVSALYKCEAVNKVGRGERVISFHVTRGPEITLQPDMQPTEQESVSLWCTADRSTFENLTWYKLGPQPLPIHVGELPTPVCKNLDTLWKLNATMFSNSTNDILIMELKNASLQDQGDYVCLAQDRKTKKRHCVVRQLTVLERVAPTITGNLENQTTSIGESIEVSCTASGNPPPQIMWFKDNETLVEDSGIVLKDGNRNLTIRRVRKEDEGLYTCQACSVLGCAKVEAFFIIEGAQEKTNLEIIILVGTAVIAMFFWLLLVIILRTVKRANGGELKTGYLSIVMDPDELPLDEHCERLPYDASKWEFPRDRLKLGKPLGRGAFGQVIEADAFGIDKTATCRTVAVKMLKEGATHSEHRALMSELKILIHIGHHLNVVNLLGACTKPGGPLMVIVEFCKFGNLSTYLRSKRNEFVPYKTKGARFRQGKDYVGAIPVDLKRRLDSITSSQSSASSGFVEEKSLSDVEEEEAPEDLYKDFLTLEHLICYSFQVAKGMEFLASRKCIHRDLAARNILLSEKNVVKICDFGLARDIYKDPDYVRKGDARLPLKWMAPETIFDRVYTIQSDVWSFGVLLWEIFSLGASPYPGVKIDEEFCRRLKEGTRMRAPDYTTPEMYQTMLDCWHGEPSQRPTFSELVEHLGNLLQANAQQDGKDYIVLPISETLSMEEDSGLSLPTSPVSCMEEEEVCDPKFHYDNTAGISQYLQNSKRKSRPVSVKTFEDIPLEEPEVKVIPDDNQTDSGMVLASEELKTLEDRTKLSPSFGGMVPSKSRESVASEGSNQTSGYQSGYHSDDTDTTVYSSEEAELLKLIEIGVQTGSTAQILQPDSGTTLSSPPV
Description: as §1, §2

LBK1 = LBK1 (Homo sapiens (Human), UniProt Q15831); test: as above; format: biochemical; details: 10 μM TF, 10 μM ATP
Description: as §1, §2

LCK = LCK (Homo sapiens (Human), UniProt P06239); test: as above; format: biochemical; details: 10 μM TF, 10 μM ATP, relative kinase activity
Chain of LCK (P06239 whole entry): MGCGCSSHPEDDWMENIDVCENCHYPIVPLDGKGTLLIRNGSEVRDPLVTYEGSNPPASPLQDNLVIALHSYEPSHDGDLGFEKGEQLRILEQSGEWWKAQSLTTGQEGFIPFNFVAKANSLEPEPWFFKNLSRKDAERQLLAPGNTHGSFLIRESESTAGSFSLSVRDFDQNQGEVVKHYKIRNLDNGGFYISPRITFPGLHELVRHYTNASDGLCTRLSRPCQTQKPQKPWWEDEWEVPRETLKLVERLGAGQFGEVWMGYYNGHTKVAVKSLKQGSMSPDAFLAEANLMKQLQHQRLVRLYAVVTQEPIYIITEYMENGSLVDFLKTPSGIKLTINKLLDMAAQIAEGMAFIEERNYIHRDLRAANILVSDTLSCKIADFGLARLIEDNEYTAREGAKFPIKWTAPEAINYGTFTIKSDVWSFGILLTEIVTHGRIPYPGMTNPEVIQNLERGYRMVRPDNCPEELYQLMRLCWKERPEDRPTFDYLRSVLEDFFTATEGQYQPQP
Description: as §1, §2

MAPK14 = MAPK14 (Homo sapiens (Human), UniProt Q16539); test: as above; format: biochemical; details: 10 μM TF, 10 μM ATP
Chain of MAPK14 (Q16539 whole entry): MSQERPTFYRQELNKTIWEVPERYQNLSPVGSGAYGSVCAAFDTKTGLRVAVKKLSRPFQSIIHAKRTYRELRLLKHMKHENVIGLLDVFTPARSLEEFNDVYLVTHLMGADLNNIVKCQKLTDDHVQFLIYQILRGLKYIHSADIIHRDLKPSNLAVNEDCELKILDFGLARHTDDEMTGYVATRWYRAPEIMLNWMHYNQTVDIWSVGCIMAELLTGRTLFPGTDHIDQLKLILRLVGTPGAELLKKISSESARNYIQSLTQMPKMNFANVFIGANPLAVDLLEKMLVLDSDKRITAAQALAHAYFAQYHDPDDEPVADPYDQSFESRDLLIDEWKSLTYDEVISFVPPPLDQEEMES
Description: as §1, §2

PAK4 = PAK4 (Homo sapiens (Human), UniProt O96013); test: as above; format: biochemical; details: 10 μM TF, 10 μM ATP
Description: as §1, §2

PIM1 = PIM1 (Homo sapiens (Human), UniProt P11309); test: as above; format: biochemical; details: 10 μM TF, 10 μM ATP, relative kinase activity
Chain of PIM1 (P11309 whole entry): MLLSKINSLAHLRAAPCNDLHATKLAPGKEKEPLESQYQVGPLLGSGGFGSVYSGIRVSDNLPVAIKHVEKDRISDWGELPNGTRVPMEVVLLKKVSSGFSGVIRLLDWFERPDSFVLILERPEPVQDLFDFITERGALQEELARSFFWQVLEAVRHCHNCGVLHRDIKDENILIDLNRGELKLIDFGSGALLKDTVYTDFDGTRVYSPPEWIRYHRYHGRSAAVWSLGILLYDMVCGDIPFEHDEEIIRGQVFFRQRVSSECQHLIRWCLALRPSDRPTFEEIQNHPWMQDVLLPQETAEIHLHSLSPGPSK
Description: as §1, §2

PKD2/PRKD2 = PKD2/PRKD2 (Homo sapiens (Human), UniProt Q9BZL6); test: as above; format: biochemical; details: 10 μM TF, 10 μM ATP, relative kinase activity
Chain of PKD2/PRKD2 (Q9BZL6 whole entry): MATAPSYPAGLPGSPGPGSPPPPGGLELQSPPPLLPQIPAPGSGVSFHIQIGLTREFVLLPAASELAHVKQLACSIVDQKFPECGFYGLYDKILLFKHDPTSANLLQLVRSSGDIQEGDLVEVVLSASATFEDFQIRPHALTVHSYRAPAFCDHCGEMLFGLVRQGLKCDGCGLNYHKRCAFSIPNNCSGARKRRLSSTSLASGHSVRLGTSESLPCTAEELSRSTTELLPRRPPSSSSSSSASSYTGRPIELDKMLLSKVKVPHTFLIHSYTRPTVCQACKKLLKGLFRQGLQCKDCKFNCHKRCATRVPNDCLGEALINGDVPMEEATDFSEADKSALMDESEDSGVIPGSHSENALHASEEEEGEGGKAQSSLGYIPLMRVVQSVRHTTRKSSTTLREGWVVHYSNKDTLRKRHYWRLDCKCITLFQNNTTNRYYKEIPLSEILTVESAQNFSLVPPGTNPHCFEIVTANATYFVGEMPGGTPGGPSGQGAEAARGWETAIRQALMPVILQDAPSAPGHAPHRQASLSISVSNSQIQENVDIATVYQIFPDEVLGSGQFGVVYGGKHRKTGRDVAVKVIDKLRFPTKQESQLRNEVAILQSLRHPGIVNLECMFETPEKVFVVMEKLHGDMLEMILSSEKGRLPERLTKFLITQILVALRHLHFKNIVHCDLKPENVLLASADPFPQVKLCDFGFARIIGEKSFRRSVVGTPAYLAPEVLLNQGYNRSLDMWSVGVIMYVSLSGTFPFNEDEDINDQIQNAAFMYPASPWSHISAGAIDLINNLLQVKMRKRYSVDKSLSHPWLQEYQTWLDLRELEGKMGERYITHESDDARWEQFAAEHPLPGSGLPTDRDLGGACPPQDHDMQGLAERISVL
Description: as §1, §2

SGK1 (d1-59, S422D) = SGK1 (d1-59, S422D) (Homo sapiens (Human), UniProt O00141, S422D); test: as above; format: biochemical; details: 10 μM TF, 10 μM ATP, relative kinase activity
Description: as §1, §2

[5] = tested on: 63 isolated human protein kinases; test: Selectivity profile over 63 isolated human protein kinases; format: biochemical; details: 10 μM TF, 10 μM ATP
Description: as §1
After the inhibitory potency of TF had been able to be established in LNCaP cells, the possibility that TF could be a selective CK2 inhibitor had to be investigated. To this end, the inhibiting effect of TF on 63 isolated human protein kinases (PK) was investigated by the firm “Reaction Biology” (Malvern, Pa., USA). These included representatives of PKs from all main groups of the human kinome (Manning et al., 2002). The results of this investigation are shown in FIG. 8, classified into the main human PK groups. In this series of tests, all of the PKs were each incubated with 10 μM of ATP and 10 μM of TF. In a subsequent radiometric test, the respective kinase activity with respect to a sample without TF was determined. Since the KM values of PK with respect to ATP occasionally differed substantially (Knight and Shokat, 2005), the results only allow a semi-quantitative comparison of inhibition by TF to be made. […]

SMILES: CC1=C(Br)COc2c1ccc(O)c2Br [DBC, 3,8-dibromo-7-hydroxy-4-methyl-chromene]
- IC50 (CK2): 100 nM

SMILES: C=CC1=C(C)c2cc3[n-]c(cc4nc(cc5[n-]c(cc1n2)c(C)c5C=C)C(C)=C4CCC(=O)O)c(CCC(=O)O)c3C.[Fe+2] [Haematin]
- IC50 (CK2): 550 nM

SMILES: O=C(O)Cc1c2ccccc2n2c1[nH]c(=O)c1ccccc12 [IQA, (5-oxo-5,6-dihydroindolo[1,2-a]quinazolin-7-yl) acetic acid]
- stability in aqueous media [1]: unstable in aqueous media

SMILES: O=c1c2c(O)cccc2oc2c([N+](=O)[O-])ccc(O)c12 [MNX, 1,8-dihydro-4-nitroxanthen-9-one]
- IC50 (CK2): 400 nM

- IC50 (CK2 holoenzyme): 2400 nM
SMILES: CCOC(=O)c1oc2c(Cl)c(Cl)c(OC(C)=O)c(C#N)c2c1N [Ric138]

- CK2-activity at 10 μM (CK2 holoenzyme): 61%^
SMILES: CC(C)=CC(=O)c1coc2ccc(O)cc12 [Ric149]

- IC50 (CK2 holoenzyme): 200 nM
SMILES: CC(=O)Oc1c(Cl)c(Cl)c2oc(C(=O)C=C(C)C)c(N)c2c1C#N [Ric152]

- CK2-activity at 10 μM (CK2 holoenzyme): 110%^
SMILES: CCOC(=O)c1oc2ccc(OC(C)=O)c(CNC(C)=O)c2c1NC(C)=O [RicFur]

SMILES: Brc1c(Br)c(Br)c2[nH]nnc2c1Br [TBB, 4,5,6,7-tetrabrombenzotriazole]
- viability of LNCaP cells (LNCaP cells; 25 μM, 72 h): no effects were observed
- viability at 75 µM (LNCaP cells; 24 h): 90%
- viability at 75 µM (LNCaP cells; 48 h): 45%
- viability at 75 µM (LNCaP cells; 72 h): 17%
- bands of the 89 kDa PARP fragment ([2]; 25 μM): a faint band could be seen at 89 kDa
- bands of the 89 kDa PARP fragment ([2]; from 50 μM, 24 h and 48 h): almost identical results
- CK2 activity of LNCaP cell lysate ([3]; 75 μM, 24 h, called most probably a rogue result): 90%
- endogenous CK2 activity of LNCaP cells [3]: 50%
- solubility in water [4]: relatively poor solubility in water

- mode of inhibition (CK2 holoenzyme; IC50 at 8 different ATP concentrations): ATP competitive inhibitor
- Ki (CK2 holoenzyme; Y-axis intersection of IC50 vs ATP concentration (8 ATP concentrations), read-out: inhibition constant Ki): 14.7 nM
- IC50 (CK2 holoenzyme): 30 nM
- remaining activity at 10 µM (CK2α (CK2a)): 24%
- Activity Aurora A (Aurora A): 11.00%
- remaining activity at 10 µM (CK2α′ (CK2a2)): 35%
- Activity FLT4/VEGFR3 (FLT4/VEGFR3): 19.68%
- kinase activity IRAK4 (IRAK4): clear increase in activity
- Activity KDR/VEGFR2 (KDR/VEGFR2): 13.05%
- kinase activity LBK1 (LBK1): clear increase in activity
- Activity LCK (LCK): 29.20%
- kinase activity MAPK14 (MAPK14): clear increase in activity
- kinase activity PAK4 (PAK4): clear increase in activity
- Activity PIM1 (PIM1): 19.90%
- Activity PKD2/PRKD2 (PKD2/PRKD2): 20.90%
- Activity SGK1 (d1-59, S422D) (SGK1 (d1-59, S422D)): 14.16%
SMILES: Cc1ccc(N/C=C2\C(=O)CCc3c2oc2c(Cl)c(Cl)c(O)cc32)cc1 [TF, (Z)-6,7-dichloro-1,4-dihydro-8-hydroxy-4-[(4-methylphenylamino)methylene]-dibenzo[b,d]furan-3(2H)-one]
- viability at 25 µM (LNCaP cells; 25 μM, 24 h): 45%
- viability at 25 µM (LNCaP cells; 25 μM, 48 h): 37%
- viability at 25 µM (LNCaP cells; 25 μM, 72 h): 14%
- viability at 50 µM (LNCaP cells; 24 h): 30%
- viability at 50 µM (LNCaP cells; 48 h): 15%
- viability at 50 µM (LNCaP cells; 72 h): 5%
- viability at 75 µM (LNCaP cells; 24 h): 31%
- viability at 75 µM (LNCaP cells; 48 h): 12%
- viability at 75 µM (LNCaP cells; 72 h): 3%
- bands of the 89 kDa PARP fragment ([2]; from 50 μM, 24 h and 48 h): increased in intensity in a concentration-dependent manner
- endogenous CK2 activity of LNCaP cells [3]: 50%
- number of the 63 PK inhibited (reduction in activity of >50%) in addition to CK2α and CK2α′ [5]: twelve

SMILES: O=c1cc(-c2ccc(O)cc2)oc2cc(O)cc(O)c12 [apigenin]
- IC50 (CK2): ~1000 nM
